Measurements reported in US10155726B2, “Substituted pyridines and uses thereof” (PELOTON THERAPEUTICS, INC., priority 2015, dated 2018).
“Also recorded” adds a separate entry of the source.

How the values were obtained:
[1] = target: T1, HIF-2α HIS TAG-PASB Domain (Homo sapiens, UniProt Q99814); test: HIF-2α Scintillation Proximity Assay (SPA); format: binding; settings: displacement of tritiated probe from HIF-2α PAS-B domain
T1 construct: 100 nM HIF-2α HIS TAG-PASB Domain
Method: The total assay volume was about 100 μL in the following configuration: 2 μL compound in 100% DMSO, 88 μL buffer with protein and probe and 10 μL of SPA beads. […] The percent inhibition was determined and IC50 values were calculated using the Dotmatics system based on the following equation: % inhibition=[(high control−sample)/(high control−low control)]×100.

786-O-Hif-Luc cells = test: Luciferase Assay; format: cell-based; settings: about 24 hours
Method: 786-O-Hif-Luc single clone cells were obtained by infecting 786-O cells (ATCC® CRL-1932™) with commercial lentivirus that delivers a luciferase gene driven by multiple HIF responsive elements (Cignal Lenti HIF Reporter (luc): CLS-007L, Qiagen) at Multiplicity of Infection (MOI) of 25 for 24 hours. […] A pool of infected cells were then selected against 2 μg/mL of puromycin (P8833, Sigma) for 10 days followed by limited dilution to select single clones. […] For the luciferase assay, about 7500 786-O-Hif-Luc cells in 90 μL growth medium were seeded into each well of a 96-well white opaque plate (08-771-26, Fisher scientific) a day before treatment with the layout presented in FIG. 4. […] Each concentration was tested in triplicate. After about 24 hours, luciferase activity was determined using ONE-Glo Luciferase Assay Reagent (E6110, Promega) following the manufacturer's recommended procedure. EC50 were calculated using Dotmatics software.

786-O cells = test: VEGF ELISA Assay; format: cell-based; settings: Homo sapiens, 786-0; VEGF concentration in culture medium of 786-O cells
Method: About 7500 786-O cells in 180 μL of growth medium were seeded into each well of a 96-well, white, clear bottom plate (07-200-566, Fisher Scientific) on day one in the layout presented in FIG. 3. […] Each concentration was plated in duplicate. About 20 hours later, medium was removed by suction and each well was supplied with 180 μL of growth medium. About 20 μl freshly-made 10× compound stocks were added to each well. […] The EC50 was calculated by GraphPad Prism using the dose-response-inhibition (four parameter) equation. The cell-seeded plate was then subjected to CellTiter-Glo luminescence cell viability assay (Promega) by adding 50 μL of Celltiter Glo reagent into each well and shaking the plate for 8 minutes at 550 rpm (Thermomixer R, Eppendorf) then the luminescence signal immediately read in a plate reader (3 second delay, 0.5 second/well integration time, Synergy 2 multi Detection Microplate reader).

[2] = test system: HIF-2α target genes VEGF, PAI-1 and CCND1; test: PK/PD study: expression of HIF-2α regulated genes in 786-O tumor xenografts by qRT-PCR; format: in vivo, SCID/Biege mice; settings: 10 mg/kg oral gavage, six doses at 12 hour interval, 12 hours post last dose
Method: (§1) When the xenografts reached about 750 mm^3 in size, the tumor bearing mice were randomly grouped into four groups (n=3). […] All animals were sacrificed at 12 hours post last dose. Tumors and plasma were collected from each animal. Total RNA was extracted from the tumors, and the expression levels of putative HIF-2α regulated genes were determined by qRT-PCR. […] The level of human VEGFA was assessed using an ELISA assay.

human VEGFA = test: PK/PD study: human VEGFA in plasma of 786-O xenograft bearing mice by ELISA; format: in vivo, SCID/Biege mice; settings: 10 mg/kg oral gavage, six doses at 12 hour interval, 12 hours post last dose
Method: as §1

T1 sequence (Q99814 239-348): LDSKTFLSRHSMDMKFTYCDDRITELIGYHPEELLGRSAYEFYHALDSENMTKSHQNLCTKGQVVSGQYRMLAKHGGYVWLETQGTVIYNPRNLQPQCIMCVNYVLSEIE

O[C@H]1c2c(C(F)(F)F)ncc(Oc3cncc(F)c3)c2[C@@H](F)[C@H]1F [Compound 40]
IC50 [1]: < 50 nM
EC50 (786-O-Hif-Luc cells): < 50 nM

CS(=O)(=O)c1ncc(OC2CC(F)(F)C2)c2c1[C@H](O)[C@H](F)C2 [Compound 12]
IC50 [1]: 250 to 1000 nM
EC50 (786-O-Hif-Luc cells): > 1000 nM

CC(C)Oc1cnc(C(F)(F)F)c2c1C[C@@H](F)[C@H]2O [Compound 25]
IC50 [1]: 250 to 1000 nM

OC1CCc2c(OCC(F)F)cnc(C3(C(F)(F)F)CC3)c21 (stereo not shown) [Compound 39]
IC50 [1]: > 1000 nM

O[C@H]1c2c(C(F)(F)F)ncc(-c3cc(F)cc(F)c3)c2C[C@H]1F [Compound 36]
IC50 [1]: 250 to 1000 nM

CC(C)Oc1cnc(C(F)(F)F)c2c1C[C@H](F)[C@H]2O [Compound 26]
IC50 [1]: > 1000 nM

O[C@H]1c2c(C(F)F)ncc(OC3CC(F)(F)C3)c2C[C@H]1F [Compound 30]
IC50 [1]: > 1000 nM

N#Cc1cc(F)cc(Oc2nnc(C(F)(F)F)c3c2CCC3O)c1 (stereo not shown) [Compound 42, 3-fluoro-5-((5-hydroxy-4-(trifluoromethyl)-6,7-dihydro-5H-cyclopenta[d]pyridazin-1-yl)oxy)benzonitrile]
IC50 [1]: > 1000 nM
EC50 (786-O-Hif-Luc cells): > 1000 nM

CS(=O)(=O)c1cnc(Oc2cc(F)cc(C#N)c2)c2c1C(O)CC2 (stereo not shown) [Compound 28]
IC50 [1]: > 1000 nM

CS(=O)(=O)c1ncc(OC2CC(F)(F)C2)c2c1[C@H](O)[C@@H](F)C2 [Compound 11]
IC50 [1]: > 1000 nM

N#Cc1cc(F)cc(Oc2ncc(C(F)(F)F)c3c2CCC3O)c1 (stereo not shown) [Compound 32]
IC50 [1]: > 1000 nM

N#Cc1cc(F)cc(Oc2ncc(Br)c3c2[C@@H](F)C(F)(F)[C@H]3O)c1 [Compound 17]
IC50 [1]: 50 to 249 nM
EC50 (786-O-Hif-Luc cells): > 1000 nM

N#Cc1cc(F)cc(Oc2cnc(C(F)(F)F)c3c2C[C@@H](F)[C@H]3O)c1 [Compound 3, 3-fluoro-5-(((6R,7S)-6-fluoro-7-hydroxy-1-(trifluoromethyl)-6,7-dihydro-5H-cyclopenta[c]pyridin-4-yl)oxy)benzonitrile]
IC50 [1]: < 50 nM
EC50 (786-O cells): 50 to 249 nM
EC50 (786-O-Hif-Luc cells): < 50 nM

O=S(=O)(c1cnc(Oc2cc(F)cc(F)c2)c2c1CCC2)C(F)F [Compound 6, 4-(difluoromethylsulfonyl)-1-(3,5-difluorophenoxy)-6,7-dihydro-5H-cyclopenta[c]pyridine]
IC50 [1]: > 1000 nM
EC50 (786-O-Hif-Luc cells): > 1000 nM

O[C@H]1c2c(C(F)F)ncc(OC3CC(F)(F)C3)c2C[C@@H]1F [Compound 31]
IC50 [1]: > 1000 nM

O[C@@H]1CCc2c(OC3CC(F)(F)C3)cnc(C(F)(F)F)c21 [Compound 2, (R)-4-(3,3-difluorocyclobutoxy)-1-(trifluoromethyl)-6,7-dihydro-5H-cyclopenta[c]pyridin-7-ol]
IC50 [1]: < 50 nM
EC50 (786-O-Hif-Luc cells): 250 to 1000 nM

O[C@H]1c2c(C(F)(F)F)ncc(OCCCF)c2C[C@@H]1F [Compound 24]
IC50 [1]: 50 to 249 nM

CS(=O)(=O)c1cnc(Oc2cc(F)cc(C#N)c2)c2c1[C@H](O)C(F)(F)[C@@H]2F [Compound 20]
IC50 [1]: < 50 nM
EC50 (786-O-Hif-Luc cells): > 1000 nM

O[C@H]1c2c(C(F)(F)F)ncc(Oc3cncc(F)c3)c2C[C@H]1F [Compound 13]
IC50 [1]: 50 to 249 nM
EC50 (786-O-Hif-Luc cells): 50 to 249 nM

N#Cc1cncc(Oc2cnc(C(F)(F)F)c3c2[C@@H](F)[C@@H](F)[C@H]3O)c1 [Compound 34, 5-(((5R,6S,7S)-5,6-difluoro-7-hydroxy-1-(trifluoromethyl)-6,7-dihydro-5H-cyclopenta[c]pyridin-4-yl)oxy)nicotinonitrile]
IC50 [1]: < 50 nM
EC50 (786-O cells): 50 to 249 nM
EC50 (786-O-Hif-Luc cells): 50 to 249 nM
mRNA levels of HIF-2α target genes (VEGF, PAI-1, CCND1) in 786-O xenografts [2]: decreased; also recorded: significant reduction
level of human VEGFA in plasma of 786-O xenograft bearing mice (human VEGFA): decreased; also recorded: significant reduction

CS(=O)(=O)c1cnc(Oc2cc(F)cc(C#N)c2)c2c1[C@H](O)[C@H](F)[C@@H]2F [Compound 18]
IC50 [1]: > 1000 nM

N#Cc1cc(F)cc(Oc2ncc(Br)c3c2C(F)C(F)(F)C3F)c1 (stereo not shown) [Compound 16]
IC50 [1]: > 1000 nM

O[C@H]1c2c(C(F)(F)F)ncc(O[C@H]3C[C@H](F)C3)c2C[C@H]1F [Compound 14]
IC50 [1]: < 50 nM
EC50 (786-O cells): < 50 nM
EC50 (786-O-Hif-Luc cells): < 50 nM

O[C@H]1c2c(C(F)(F)F)ncc(OCCCF)c2C[C@H]1F [Compound 23]
IC50 [1]: < 50 nM
EC50 (786-O-Hif-Luc cells): 50 to 249 nM

O[C@H]1c2c(C(F)(F)F)ncc(OC3CC(F)(F)C3)c2C[C@H]1F [Compound 1, (6R,7S)-4-(3,3-difluorocyclobutoxy)-6-fluoro-1-(trifluoromethyl)-6,7-dihydro-5H-cyclopenta[c]pyridin-7-ol]
IC50 [1]: < 50 nM
EC50 (786-O cells): < 50 nM
EC50 (786-O-Hif-Luc cells): < 50 nM

O[C@H]1c2c(C(F)(F)F)ncc(OCC(F)F)c2C[C@@H]1F [Compound 27]
IC50 [1]: 50 to 249 nM
EC50 (786-O-Hif-Luc cells): 50 to 249 nM

CS(=O)(=O)c1ncc(Oc2cc(F)cc(C#N)c2)c2c1[C@H](O)[C@H](F)C2 [Compound 4, 3-fluoro-5-(((6R,7S)-6-fluoro-7-hydroxy-1-(methylsulfonyl)-6,7-dihydro-5H-cyclopenta[c]pyridin-4-yl)oxy)benzonitrile]
IC50 [1]: 50 to 249 nM
EC50 (786-O-Hif-Luc cells): 250 to 1000 nM

N#Cc1cc(F)cc(-c2cnc(C(F)(F)F)c3c2C[C@@H](F)[C@H]3O)c1 (racemic) [Compound 7, 3-fluoro-5-((6R,7S)-6-fluoro-7-hydroxy-1-(trifluoromethyl)-6,7-dihydro-5H-cyclopenta[c]pyridin-4-yl)benzonitrile]
IC50 [1]: 250 to 1000 nM
EC50 (786-O-Hif-Luc cells): 250 to 1000 nM

N#Cc1cc(F)cc(Oc2cnc(C(F)(F)F)c3c2[C@@H](F)[C@@H](F)[C@H]3O)c1 [Compound 22, 3-(((5R,6S,7S)-5,6-difluoro-7-hydroxy-1-(trifluoromethyl)-6,7-dihydro-5H-cyclopenta[c]pyridin-4-yl)oxy)-5-fluorobenzonitrile]
IC50 [1]: < 50 nM
EC50 (786-O cells): < 50 nM
EC50 (786-O-Hif-Luc cells): < 50 nM
mRNA levels of HIF-2α target genes (VEGF, PAI-1, CCND1) in 786-O xenografts [2]: decreased; also recorded: significant reduction
level of human VEGFA in plasma of 786-O xenograft bearing mice (human VEGFA): decreased; also recorded: significant reduction

O[C@H]1c2c(C(F)(F)F)ncc(OCC(F)F)c2C[C@H]1F [Compound 9]
IC50 [1]: < 50 nM
EC50 (786-O cells): 250 to 1000 nM
EC50 (786-O-Hif-Luc cells): 50 to 249 nM

O/N=C1/c2c(C(F)(F)F)ncc(OCC(F)F)c2CC1F (stereo not shown) [Compound 38]
IC50 [1]: > 1000 nM

N#Cc1cc(F)cc(Oc2ncc(C(F)(F)F)c3c2C[C@@H](F)[C@H]3O)c1 [Compound 33, 3-fluoro-5-(((5S,6R)-6-fluoro-5-hydroxy-4-(trifluoromethyl)-6,7-dihydro-5H-cyclopenta[c]pyridin-1-yl)oxy)benzonitrile]
IC50 [1]: > 1000 nM

O[C@H]1c2c(C(F)(F)F)ncc(OC3CC(F)(F)C3)c2[C@@H](F)[C@H]1F [Compound 37, (5R,6S,7S)-4-(3,3-difluorocyclobutoxy)-5,6-difluoro-1-(trifluoromethyl)-6,7-dihydro-5H-cyclopenta[c]pyridin-7-ol]
IC50 [1]: < 50 nM
EC50 (786-O cells): < 50 nM
EC50 (786-O-Hif-Luc cells): < 50 nM
mRNA levels of HIF-2α target genes (VEGF, PAI-1, CCND1) in 786-O xenografts [2]: decreased; also recorded: significant reduction
level of human VEGFA in plasma of 786-O xenograft bearing mice (human VEGFA): decreased; also recorded: significant reduction

O[C@@H]1CCc2c(OCC(F)F)cnc(C(F)(F)F)c21 [Compound 10]
IC50 [1]: > 1000 nM
EC50 (786-O-Hif-Luc cells): > 1000 nM

O[C@H]1c2c(C(F)(F)F)ncc(-c3ccccc3)c2C[C@H]1F [Compound 35]
IC50 [1]: > 1000 nM

CS(=O)(=O)c1cnc(Oc2cc(F)cc(C#N)c2)c2c1[C@H](O)[C@H](F)C2 [Compound 19]
IC50 [1]: > 1000 nM

N#Cc1cc(F)cc(Oc2cnc(C(F)(F)F)c3c2CCC3O)c1 (stereo not shown) [Compound 8]
IC50 [1]: < 50 nM
EC50 (786-O-Hif-Luc cells): 250 to 1000 nM

CS(=O)(=O)c1cnc(Oc2cc(F)cc(C#N)c2)c2c1[C@H](O)C(F)(F)[C@H]2F [Compound 21]
IC50 [1]: 250 to 1000 nM
EC50 (786-O-Hif-Luc cells): > 1000 nM
